Source: patent US10676452B2, “Compound for the prophylaxis or treatment of organ damage” (Sulfateq B.V., priority 2015, dated 2020)
“Also recorded” adds a separate entry of the source.

How the values were obtained:
[1] = tested on: db/db mice; assay: Renal histology: PAS staining, focal glomerulosclerosis (FGS) score; format: in vivo, mouse; conditions: diabetic mice
Text: Four-micrometer-thick formalin fixed sections were deparaffinized and stained for periodic acid-Schiff (PAS) for quantification of focal glomerulosclerosis (FGS) and tubular injury. FGS was semiquantitatively scored in a blinded fashion by determining the level of mesangial expansion and focal adhesion in each quadrant in a glomerulus and expressed on a scale from 0 to 4. If 25% of the glomerulus was affected, it was scored as 1, 50% as 2, 75% as 3, and 100% as 4. In total, 50 glomeruli per kidney were analyzed, and the total FGS score was calculated by multiplying the score by the percentage of glomeruli with the same FGS score. Thus the total FGS score ranged from 0 to 200.

[2] = tested on: mouse aortic rings; assay: Organ bath experiments with the isolated aorta of treated mice (ACh relaxation after PE precontraction); format: in vivo; conditions: for max. relaxation to ACh (remaining % of PE preconstriction): aortic rings
Experimental: Freshly isolated thoracic aortic rings (1.5-2 mm in length) were mounted on 200-μm stainless wires in individual myograph baths (Danish Myo Technology, Aarhus, Denmark). Briefly, baths containing 6 ml Krebs solution were warmed to 37° C. and preequilibrated and continuously aerated with 95% O2-5% CO2 to maintain pH at 7.4. The length of the aortic strips was assessed by microscopy. Aortic rings were equilibrated for 40 min until they were at a steady baseline. Rings were then primed and checked for viability by two consecutive stimulations with KCl (60 mM) followed by washings and renewed stabilization to obtain reproducible contractile responses.
Contraction responses were measured as cumulative concentration-response curves to phenylephrine (PE; 10 nM-100 μM) followed by a single concentration of KCl (90 mM). Endothelium-dependent relaxation was assessed by obtaining concentration-response curves to ACh (10 nM-300 μM) in rings precontracted with PE (1 μM) followed by stimulation with a high concentration of the NO donor sodium nitroprusside (SNP; 0.1 mM) to assess maximal endothelium-independent dilation.
To study the role of the endothelium in vasoconstrictor effects, rings were denuded by removing the endothelial cell layer by rubbing the luminal side of the vessel with a moistened wire. To examine the contribution of different EDRFs in modulating vasoconstrictor responses and mediating endothelium-dependent relaxation, inhibitors of PG and NO synthesis were used. To this end, PG components were assessed by preincubating rings (20 min.) with the nonspecific cyclooxygenase inhibitor indomethacin (10 μM). The NO component was examined by subsequent incubation with both NO synthesis inhibitor NG-monomethyl-L-arginine (L-NMMA; 1 μM) and indomethacin. The remaining ACh-mediated relaxation was attributed to an unidentified EDHF.
Contractions to KCl and PE are given in milliNewtons. Relaxation responses to ACh and SNP are expressed as percentages of the preconstriction with PE. In addition to that, the area under each individual curve (AUC; in arbitrary units) was determined for ACh-induced relaxation (SigmaPlot version 10.0, Systat Software, San Jose, Calif.). The AUC was used to present total endothelium-dependent relaxation and for the subsequent analysis of differences in ACh-mediated relaxation with and without inhibitors present to estimate the contribution of the different EDRFs, i.e., PGs for the part sensitive to cycloxygenase inhibition with indomethacin, NO for the part sensitive to NOS inhibition with L-NMMA, and EDHF by means of exclusion of PG and NO (34).

[3] = Solubility of SUL121 in 50% DMSO in saline solution; format: physicochemical; conditions: aqueous with cosolvent or surfactant or cyclodextrin, kinetic from dmso stock, read-out: solubility in 50% DMSO (completely soluble up to)
Experimental: (§1) Cell culture grade DMSO was obtained from Sigma-Aldrich (Zwijndrecht, the Netherlands). 0.9% sterile saline solutions were from Baxter (Utrecht, the Netherlands). (6-hydroxy-2,5,7,8-tetramethylchroman-2-yl)(piperazin-1-yl)methanone (SUL121) was supplied by Sulfateq BV, Groningen, the Netherlands supplied in a formulation of 500 mM in 100% DMSO corresponding to 177 g/l. Osmotic minipumps (Alzet, USA) are resistant to DMSO concentrations≤50%. Therefore, the solubility of SUL121 was tested in 50% DMSO in saline solution. SUL121 was completely soluble in 50% DMSO up to a concentration of 12.6 g/1. Alzet model 2004 pumps were loaded with 200 μl of 12.6 g/1 SUL121 solution or with 200 ul 50% DMSO solution (vehicle). According to pump specifications 6 μl of SUL121 was administered per day, resulting in a daily dose of 2.2 mg/kg/day for a 35 gram mouse.

[4] = tested on: db/db mice; assay: Arterial blood pressure by tail-cuff method; format: in vivo, mouse
Experimental: (§2) Male db/db mice (n=16) and lean heterozygous control animals (n=16) were purchased from Harlan UK (strain JAX000642). All mice were housed individually. Water and food were given ad-libitum. Four groups of mice were investigated: • 1) db/db+vehicle (diabetic control) • 2) db/db+Sul121 (treated diabetic group) • 3) wt+vehicle (non-diabetic control) • 4) wt+Sul121 (to study effect of drug only) Drug and vehicle were administered by implantation of osmotic minipumps at the age of 10 (t=0) and 14 weeks (t=4). Metabolic cages and blood pressure measurements were performed every two weeks. Blood samples could not be obtained by cheek puncture, therefore blood was collected from the retro orbital plexus at the age of 10 (t=0) and 12 weeks (t=2). At the age of 18 weeks (t=8) all animals were terminated and blood was collected by cardiac puncture. Urinary Measurements
Arterial blood pressure was measured in anaesthetized mice (2% isoflurane) by means of the tail-cuff method (PS-200A; Riken-Kaihatsu; Tokyo, Japan). For each animal, blood pressure values represent the mean of three to ten recordings obtained in a single session.

[5] = tested on: db/db mice; assay: Organ (kidney) weights at termination; format: in vivo, mouse; conditions: diabetic mice, after 8 weeks of treatment
Experimental: as §2
After 8 weeks of treatment, mice were terminated and organ weights were measured (FIG. 2). […] SUL 121 treatment normalized kidney weights to non-diabetic control values.

[6] = tested on: rat kidney; conditions: blood flow stopped and restored; cited from earlier work
[7] = tested on: db/db mice; assay: Plasma hydrogen peroxide (ROS production in diabetes); format: in vivo, mouse; conditions: diabetic mice
Experimental: (§3) Urinary glucose concentrations were measured by the glucose oxidase method with a specific electrode from 24-h urine collections after the samples were stored in −20° C. The urinary creatinine concentration was measured by standard laboratory methods (Jaffe method without deproteinization, DiaSys Diagnostic Systems, Holzheim, Germany). The median values of the 24-h urine collections and of the albumin-to-creatinine ratio were calculated. In addition, mouse albumin levels in urine were determined manually using a mouse albumin Elisa kit (Abcam, Cambridge, UK). Urinary hydrogen peroxide levels were determined using an Amplex Red H2O2 assay kit (Life technologies, Leusden, the Netherlands).
Enhanced reactive oxygen species (ROS) production is a well-established phenomenon in diabetes. To study the effects of SUL121 treatment on ROS production, hydrogen peroxide, a stable metabolite of ROS, was measured in plasma (FIG. 6). SUL 121 treatment normalized H2O2 levels in plasma.

[8] = tested on: db/db mice; assay: Metabolic data (body weight, water intake, urine output, non-fasting blood glucose) in db/db mouse Type 2 diabetes model; format: in vivo
Text: Given its effectiveness in the model of renal ischemia and reperfusion, it was hypothesized that compound SUL 121 will also protect the kidney in an experimental model of obesity induced Type 2 diabetes (T2DM). Therefore, the effects of SUL121 on the development of albuminuria and renal damage in the mouse Type 2 diabetes model was studied. For the study, the db/db mouse model was employed. […] Diabetes starts at the age of 6-8 weeks and adequate levels of kidney damage and albuminuria can be observed at the age of 18 weeks.
To study the effects of SUL121 on the development of diabetes, treatment with SUL121 started from the age of 10 weeks until the age of 18 weeks. In addition, to study the effects of SUL 121 on healthy animals, control mice were treated similarly. A non-treated control group was included in the study, to serve as healthy untreated control. Drug and vehicle were administered by implantation of osmotic minipumps at the age of 10 and 14 weeks.
as §1, §2, §3

[9] = tested on: mouse renal mesangial cells; assay: In-vitro model of diabetes: intracellular ROS under high glucose and insulin; format: cell-based
Text: To further explore the mechanisms through which SUL 121 mediates renal protection in diabetes, an in-vitro model of diabetes was employed. For this, mouse renal mesangial cells were exposed to conditions simulating type 2 diabetes (high glucose and insulin). Exposure to high glucose/insulin increased intracellular ROS levels by approximately 70% (FIG. 7).

[10] = tested on: db/db mice; assay: Urinary albumin excretion and albumin/creatinine ratio; format: in vivo, mouse
Experimental: as §2, §3
To test whether SUL 121 treatment could reduce renal damage, albumin leakage into the urine was measured at all time points for diabetic animals. Total albumin excretion per day (AER) was calculated by multiplying urinary albumin concentration with daily urinary output (FIG. 3A).

Q: Which results are given for `Cc1c(C)c2c(c(C)c1O)CCC(C)(C(=O)N1CCNCC1)O2` (stereo not shown) [SUL121, (6-hydroxy-2,5,7,8-tetramethylchroman-2-yl)(piperazin-1-yl)methanone]?
A: effect on focal glomerular sclerosis (FGS) scores [1]: significantly reduced; effect on focal glomerular sclerosis (FGS) scores ([1]; listed as SUL 121): significantly lowered; effect on NO and prostaglandin components of relaxation ([2]; diabetic animals): non-significant (p=0.06) increase; effect on EDHF component of total relaxation ([2]; diabetic animals, with L-NMMA and indomethacin): significantly increasing; effect on endothelium mediated relaxation ([2]; diabetic mice): restores; max. relaxation to ACh (remaining % of PE preconstriction) ([2]; treated diabetic group): 11.3±2.3%; max. relaxation to ACh (remaining % of PE preconstriction) ([2]; treated non-diabetic controls): 9.2±1.6%; solubility [3]: ≥ 12.6 mg/mL; effect on blood pressure ([4]; diabetic mice): did not affect; effect on blood pressure ([4]; non-diabetic wild type mice, week 2): lowered; effect on blood pressure ([4]; week 6): did not affect; effect on kidney weights (kidney hypertrophy) [5]: normalized; reduction of ischemia and reperfusion damage [6]: very effective; effect on plasma H2O2 levels [7]: normalized; effect on urine output and water intake ([8]; all time points other than week 8): did not significantly affect; effect on blood glucose levels ([8]; diabetic db/db mice): did not affect; non-fasting blood glucose level ([8]; diabetic db/db mice, end of the experiment): 35.3 ± 1.1 mM; non-fasting blood glucose level ([8]; diabetic db/db mice, start of the experiment): 27.2 ± 1.3 mM; urine output ([8]; diabetic db/db mice, week 8): 11.2 ± 3.8 g; water intake ([8]; diabetic db/db mice, week 8): 10.9 ± 3.9 g; effect on high glucose/insulin induced increase of intracellular ROS ([9]; cells pretreated, high glucose and insulin): substantially inhibited; also recorded: normalized; effect on intracellular ROS production, compound alone ([9]; without high glucose/insulin): did not affect; effect on total albumin excretion per day (AER) ([10]; diabetic animals, weeks 6 and 8): prevented the progression; albumin/creatinine ratio (ACR) ([10]; diabetic mice, week 6): 534 ± 79 µg/mg; albumin/creatinine ratio (ACR) ([10]; diabetic mice, week 8 (not statistically significant vs diabetic control)): 866 ± 91 µg/mg; effect on AER ([10]; non-diabetic animals): did not affect; total albumin excretion per day (AER) ([10]; non-diabetic animals, week 8): 31.3 ± 4.6 µg/day; albumin/creatinine ratio (ACR) ([10]; wild type animals, week 8): 55 ± 6 µg/mg
